Experimental findings from patent US20230159509A1 (Amathus Therapeutics, Inc., priority 2020, published 2023) are described below.

The target of the assay is T1, TRAP1 enzyme (Homo sapiens, UniProt Q12931).
T1 construct: 150 nM Trap1 enzyme was incubated with various concentrations of the test compound
T1 sequence (Q12931 60-704): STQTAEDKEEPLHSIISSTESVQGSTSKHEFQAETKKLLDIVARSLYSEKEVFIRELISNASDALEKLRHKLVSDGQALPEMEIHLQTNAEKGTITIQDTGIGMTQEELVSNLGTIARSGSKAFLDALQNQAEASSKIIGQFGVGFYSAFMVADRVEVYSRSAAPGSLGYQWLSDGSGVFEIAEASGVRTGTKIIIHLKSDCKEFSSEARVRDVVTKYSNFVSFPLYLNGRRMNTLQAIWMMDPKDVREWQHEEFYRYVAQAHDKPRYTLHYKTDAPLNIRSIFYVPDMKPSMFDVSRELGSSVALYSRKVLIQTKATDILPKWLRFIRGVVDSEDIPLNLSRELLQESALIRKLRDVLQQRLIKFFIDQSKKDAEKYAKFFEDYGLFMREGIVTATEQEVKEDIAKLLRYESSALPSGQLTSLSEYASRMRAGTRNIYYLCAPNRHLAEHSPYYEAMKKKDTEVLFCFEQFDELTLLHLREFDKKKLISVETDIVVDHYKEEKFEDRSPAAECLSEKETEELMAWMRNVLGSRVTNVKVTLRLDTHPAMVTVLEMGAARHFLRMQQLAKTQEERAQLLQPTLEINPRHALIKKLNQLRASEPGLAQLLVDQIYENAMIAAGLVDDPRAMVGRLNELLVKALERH
Briefly: ADP Glo assay of TRAP1 ATPase activity. To be noted: 1 h; compound concentration 50 μM; read-out: ADP-Glo Percent Activation at 50 μM. The assay is classed as biochemical. Put shortly:
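Compound (0.79–100 μM) was preincubated 30 min at 37° C with 150 nM TRAP1 in 25 mM Pipes pH 7.5, 40 mM KCl, 0.05 mM MgCl2. Reaction started with 20 μM ATP, 60 min at 37° C. ADP measured by luminescence against a standard curve; activation fitted sigmoidally for EC50 and Emax.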

Consider `COc1ncc(NC(=O)c2cccc(N3CCOCC3)n2)cc1S(=O)(=O)Nc1c(C)cccc1C` [compound 2584], for which the activation at 50 µM was in the range of 181 to 352%. In the case of `COc1ncc(NC(=O)c2ccn(C)n2)cc1S(=O)(=O)Nc1c(C)cccc1C` [compound 2586], the activation at 50 µM lay in the range of 120 to 150%.

Take `COc1ncc(NC(=O)c2cnn(C3CCOCC3)c2)cc1S(=O)(=O)Nc1c(C)cccc1C` [compound 2587]: the activation at 50 µM was 120 to 150%. As to `COc1ncc(NC(=O)c2ccc(N3CCOCC3)cc2F)cc1S(=O)(=O)Nc1c(C)cccc1C` [compound 2590], the activation at 50 µM lay within 181 to 352%. The result for `COc1ncc(NC(=O)c2cccc(CN3CCCC3)c2)cc1S(=O)(=O)Nc1c(C)cccc1C` [compound 2591] reads 151 to 180%; that for `COc1ncc(NC(=O)c2ccc(S(=O)(=O)N(C)C)cc2)cc1S(=O)(=O)Nc1c(C)cccc1C` [compound 2593], 151 to 180%.

As to `COc1ncc(NC(=O)c2nc3c(s2)CN(C)CC3)cc1S(=O)(=O)Nc1c(C)cccc1C` [compound 2594], the activation at 50 µM fell in the range of 151 to 180%.

`COc1ncc(NC(=O)c2ccsn2)cc1S(=O)(=O)Nc1c(C)cccc1C` [compound 2595]: the activation at 50 µM lay within 120 to 150%. Regarding `COc1ncc(NC(=O)c2ccc(C(C)=O)cc2)cc1S(=O)(=O)Nc1c(C)cccc1C` [compound 2597], the activation at 50 µM lay within 181 to 352%. The result for `COc1ncc(NC(=O)c2cccc(CN3CCCCC3)c2)cc1S(=O)(=O)Nc1c(C)cccc1C` [compound 2599] reads 181 to 352%; that for `CCc1cc(C(=O)Nc2cnc(OC)c(S(=O)(=O)Nc3c(C)cccc3C)c2)n(C)n1` [compound 2600], 151 to 180%; that for `COc1ncc(NC(=O)c2ccn(C(C)C)n2)cc1S(=O)(=O)Nc1c(C)cccc1C` [compound 2601], 181 to 352%. Consider `COc1ncc(NC(=O)c2ccccc2N2CCOCC2)cc1S(=O)(=O)Nc1c(C)cccc1C` [compound 2602], for which the activation at 50 µM lay within 151 to 180%. The value for `COc1ncc(NC(=O)c2cc(C)nn2C)cc1S(=O)(=O)Nc1c(C)cccc1C` [compound 2607] was 120 to 150%; that for `COc1ncc(NC(=O)c2cn(C)nc2C(F)(F)F)cc1S(=O)(=O)Nc1c(C)cccc1C` [compound 2608] was 151 to 180%; that for `CCn1nc(C)cc1C(=O)Nc1cnc(OC)c(S(=O)(=O)Nc2c(C)cccc2C)c1` [compound 2609] was 181 to 352%. `COc1ncc(NC(=O)c2ncn(C(C)C)n2)cc1S(=O)(=O)Nc1c(C)cccc1C` [compound 2611]: the activation at 50 µM fell in the range of 120 to 150%. The value for `COc1ncc(NC(=O)c2nn(C)c3c2CCC3)cc1S(=O)(=O)Nc1c(C)cccc1C` [compound 2612] was 151 to 180%; that for `COc1ncc(NC(=O)c2cccc(C(=O)N(C)C)c2)cc1S(=O)(=O)Nc1c(C)cccc1C` [compound 2613] was 151 to 180%. The result for `COc1ncc(NC(=O)c2cc(C(F)(F)F)nn2C)cc1S(=O)(=O)Nc1c(C)cccc1C` [compound 2614] reads 120 to 150%. In the case of `COc1ncc(NC(=O)c2snnc2C)cc1S(=O)(=O)Nc1c(C)cccc1C` [compound 2615], the activation at 50 µM lay in the range of 120 to 150%. The value for `COc1ncc(NC(=O)c2ccns2)cc1S(=O)(=O)Nc1c(C)cccc1C` [compound 2617] was 120 to 150%; that for `CCCc1cc(C(=O)Nc2cnc(OC)c(S(=O)(=O)Nc3c(C)cccc3C)c2)nn1C` [compound 2618] was 181 to 352%; that for `CCn1ccc(C(=O)Nc2cnc(OC)c(S(=O)(=O)Nc3c(C)cccc3C)c2)n1` [compound 2619] was 120 to 150%. The value for `COc1ncc(NC(=O)c2cccc3c2CCC3)cc1S(=O)(=O)Nc1c(C)cccc1C` [compound 2621] was 151 to 180%; that for `COc1ncc(NC(=O)c2cncc(N3CCCCC3)c2)cc1S(=O)(=O)Nc1c(C)cccc1C` [compound 2622] was 120 to 150%. The result for `COc1ncc(NC(=O)c2nn(C)cc2F)cc1S(=O)(=O)Nc1c(C)cccc1C` [compound 2624] reads 151 to 180%; that for `COc1ncc(NC(=O)c2cccn3cnnc23)cc1S(=O)(=O)Nc1c(C)cccc1C` [compound 2625], 181 to 352%; that for `CCCc1cc(C(=O)Nc2cnc(OC)c(S(=O)(=O)Nc3c(C)cccc3C)c2)n(C)n1` [compound 2626], 181 to 352%. Take `COc1cc(C(=O)Nc2cnc(OC)c(S(=O)(=O)Nc3c(C)cccc3C)c2)n(C)n1` [compound 2627]: the activation at 50 µM was 151 to 180%. The value for `COc1ncc(NC(=O)c2cn(C)nc2C)cc1S(=O)(=O)Nc1c(C)cccc1C` [compound 2628] was 120 to 150%; that for `COc1ncc(NC(=O)c2nc(C)cs2)cc1S(=O)(=O)Nc1c(C)cccc1C` [compound 2629] was 181 to 352%. The value for `CCn1cncc1C(=O)Nc1cnc(OC)c(S(=O)(=O)Nc2c(C)cccc2C)c1` [compound 2630] was 120 to 150%; that for `COc1ncc(NC(=O)c2cccc(CN(C)C)c2)cc1S(=O)(=O)Nc1c(C)cccc1C` [compound 2631] was 151 to 180%; that for `COc1ncc(NC(=O)c2cncn2C)cc1S(=O)(=O)Nc1c(C)cccc1C` [compound 2632] was 120 to 150%. For `COc1ncc(NC(=O)c2cccc(N3CCN(C)CC3)c2)cc1S(=O)(=O)Nc1c(C)cccc1C` [compound 2633], the activation at 50 µM lay within 181 to 352%. The value for `COc1ncc(NC(=O)c2ccccc2CN2CCOCC2)cc1S(=O)(=O)Nc1c(C)cccc1C` [compound 2634] was 181 to 352%; that for `COc1ncc(NC(=O)c2cccc3c2CC(=O)N3)cc1S(=O)(=O)Nc1c(C)cccc1C` [compound 2635] was 181 to 352%. The result for `COc1ncc(NC(=O)c2cnsc2)cc1S(=O)(=O)Nc1c(C)cccc1C` [compound 2636] reads 120 to 150%; that for `COc1ncc(NC(=O)c2cnn(C(F)(F)F)c2)cc1S(=O)(=O)Nc1c(C)cccc1C` [compound 2637], 120 to 150%. `COc1ncc(NC(=O)c2cnn(C)c2Cl)cc1S(=O)(=O)Nc1c(C)cccc1C` [compound 2638]: the activation at 50 µM is 151 to 180%.

With `COc1ncc(NC(=O)c2cnn(C(C)C)c2)cc1S(=O)(=O)Nc1c(C)cccc1C` [compound 2639], the activation at 50 µM is 151 to 180%. The value for `COc1ncc(NC(=O)c2ccc(S(=O)(=O)C(F)F)cc2)cc1S(=O)(=O)Nc1c(C)cccc1C` [compound 2640] was 151 to 180%. The result for `COc1ncc(NC(=O)c2ccnc(N(C)C)n2)cc1S(=O)(=O)Nc1c(C)cccc1C` [compound 2641] reads 181 to 352%. The value for `CCN(CC)S(=O)(=O)c1ccc(C(=O)Nc2cnc(OC)c(S(=O)(=O)Nc3c(C)cccc3C)c2)cc1` [compound 2642] was 151 to 180%; that for `COc1ncc(NC(=O)c2nn(C)cc2C)cc1S(=O)(=O)Nc1c(C)cccc1C` [compound 2643] was 181 to 352%; that for `COc1ncc(NC(=O)c2ccc(C(F)(F)F)s2)cc1S(=O)(=O)Nc1c(C)cccc1C` [compound 2644] was 151 to 180%. As to `COc1ncc(NC(=O)c2cc(C)nn2C(F)F)cc1S(=O)(=O)Nc1c(C)cccc1C` [compound 2646], the activation at 50 µM was in the range of 151 to 180%. Turning to `COc1ncc(NC(=O)c2scnc2C(F)(F)F)cc1S(=O)(=O)Nc1c(C)cccc1C` [compound 2649], the activation at 50 µM lay within 151 to 180%. The value for `COc1ncc(NC(=O)c2cscn2)cc1S(=O)(=O)Nc1c(C)cccc1C` [compound 2650] was 120 to 150%; that for `COc1ncc(NC(=O)c2ccnn2CC(F)(F)F)cc1S(=O)(=O)Nc1c(C)cccc1C` [compound 2651] was 181 to 352%. The value for `COc1ncc(NC(=O)c2ccc(N3CCOCC3)cn2)cc1S(=O)(=O)Nc1c(C)cccc1C` [compound 2653] was 151 to 180%. The result for `COc1ncc(NC(=O)c2scnc2C)cc1S(=O)(=O)Nc1c(C)cccc1C` [compound 2654] reads 120 to 150%; that for `COc1ncc(NC(=O)c2ccc(N3CCOCC3)c(F)c2)cc1S(=O)(=O)Nc1c(C)cccc1C` [compound 2655], 181 to 352%.

For `COc1ncc(NC(=O)c2ccc(-n3nc(C)nc3C)cc2)cc1S(=O)(=O)Nc1c(C)cccc1C` [compound 2656], the activation at 50 µM lay in the range of 181 to 352%. The value for `COc1ccnc(C(=O)Nc2cnc(OC)c(S(=O)(=O)Nc3c(C)cccc3C)c2)c1` [compound 2657] was 181 to 352%; that for `COc1ncc(NC(=O)c2cncs2)cc1S(=O)(=O)Nc1c(C)cccc1C` [compound 2658] was 120 to 150%; that for `COc1ncc(NC(=O)c2nc(C(F)(F)F)cs2)cc1S(=O)(=O)Nc1c(C)cccc1C` [compound 2659] was 151 to 180%. Take `COc1ncc(NC(=O)c2cnc(C(F)(F)F)s2)cc1S(=O)(=O)Nc1c(C)cccc1C` [compound 2660]: the activation at 50 µM lay within 120 to 150%.
